{
  "source": "paper PMC9570211",
  "about": "“Analysis of 1-Aroyl-3-[3-chloro-2-methylphenyl] Thiourea Hybrids as Potent Urease Inhibitors: Synthesis, Biochemical Evaluation and Computational Approach” (International Journal of Molecular Sciences, 2022)",
  "key": {"[1]": {"test": "DPPH free radical scavenging assay", "conditions": "in comparison of standard Vitamin C; up to 100 µg/mL", "description": "All of the produced 1-aroyl-3-[3-chloro-2-methylphenyl]thiourea compounds were assessed for the ability of DPPH free radical scavenging activity as depicted in Figure 2.\nThe assay performed in our studies had the same methodology as reported in our previous research articles."}, "[2]": {"target": "T1, jack bean urease (JBU) (Canavalia ensiformis, UniProt P07374)", "T1 sequence (P07374 whole entry, looked up)": "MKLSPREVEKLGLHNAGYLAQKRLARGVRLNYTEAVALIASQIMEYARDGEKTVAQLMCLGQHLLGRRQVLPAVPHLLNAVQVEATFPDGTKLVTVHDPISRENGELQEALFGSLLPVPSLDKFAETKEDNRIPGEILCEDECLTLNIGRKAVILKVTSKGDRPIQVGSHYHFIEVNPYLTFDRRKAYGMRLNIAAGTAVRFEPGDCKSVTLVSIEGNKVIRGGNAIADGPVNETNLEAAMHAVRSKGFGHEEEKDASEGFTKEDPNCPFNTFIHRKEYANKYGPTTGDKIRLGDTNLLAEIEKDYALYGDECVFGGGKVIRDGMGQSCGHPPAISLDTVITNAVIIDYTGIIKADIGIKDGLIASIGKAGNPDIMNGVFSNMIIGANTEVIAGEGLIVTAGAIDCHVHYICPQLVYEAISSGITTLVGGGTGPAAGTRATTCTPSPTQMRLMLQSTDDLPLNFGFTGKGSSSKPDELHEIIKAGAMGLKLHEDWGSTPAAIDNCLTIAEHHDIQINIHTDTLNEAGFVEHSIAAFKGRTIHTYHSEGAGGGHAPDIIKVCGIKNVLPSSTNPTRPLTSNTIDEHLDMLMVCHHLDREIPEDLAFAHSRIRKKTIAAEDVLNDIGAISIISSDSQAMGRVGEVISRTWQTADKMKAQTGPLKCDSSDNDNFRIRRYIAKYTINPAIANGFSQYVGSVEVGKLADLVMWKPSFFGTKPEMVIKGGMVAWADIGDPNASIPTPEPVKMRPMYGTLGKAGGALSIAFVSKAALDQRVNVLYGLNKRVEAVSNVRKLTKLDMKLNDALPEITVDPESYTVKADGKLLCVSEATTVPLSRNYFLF", "test": "biochemical", "description": "Hydrophobic and hydrophilic groups were substituted on a phenyl ring in the novel analogues 4a–j that were synthesized in order to check urease inhibition activity.\nThe function of nitro, chloro, methyl and ethyl substitution in urease inhibitory activity was evaluated. Thiourea, a well-known urease inhibitor, served as the reference compound.\nThe methodology used in this research for in vitro urease inhibitory activity is the same as reported in our earlier paper."}, "[3]": {"target": "T1, jack bean urease (JBU)", "test": "Kinetic analysis of urease inhibition (Lineweaver–Burk)", "assay_type": "biochemical", "from_the_text": "Kinetic investigations provided additional evidence for the inhibitory function, in which the potential of the potent derivative 4i to inhibit the substrate at different concentrations in such a way that enzyme concentration remained constant. The kinetic tests of the enzyme gave a series of straight lines by the Lineweaver–Burk plot of 1/V versus 1/[S] in the presence of varying compound concentrations (Figure 3A).\nKinetics performed here as stated previously in our research articles was used for urease activity determination.\nFigure 3 Compound 4i inhibiting urease in a Lineweaver–Burk plot (A) Concentrations of 4i were 0.00, 0.001, 0.002 and 0.004 µM (Blue, green, red and black colored lines). […] The lines were constructed using least squares linear regression mean ± SEM."}},
  "note": "Where two headings read alike, the source gives them in different places.",
  "data": [
    {"smiles": "Cc1c(Cl)cccc1NC(=S)NC(=O)c1cccc([N+](=O)[O-])c1", "note": "[Compound 4f]", "values": [
      {"measurement": "DPPH free radical scavenging activity", "setting": "[1]", "result": "good activity"},
      {"measurement": "IC50", "setting": "[2]", "result": 13.6, "unit": "nM"}
    ]},
    {"smiles": "Cc1ccc(C(=O)NC(=S)Nc2cccc(Cl)c2C)cc1", "note": "[Compound 4d]", "values": [
      {"measurement": "DPPH free radical scavenging activity", "setting": "[1]", "result": "good activity"},
      {"measurement": "IC50", "setting": "[2]", "result": "53.2 ± 99.5", "unit": "nM"}
    ]},
    {"smiles": "COc1ccc(C(=O)NC(=S)Nc2cccc(Cl)c2C)cc1", "note": "[Compound 4b]", "values": [
      {"measurement": "IC50", "setting": "[2]", "result": "7.9 ± 4.8", "unit": "nM"}
    ]},
    {"smiles": "Cc1c(Cl)cccc1NC(=S)NC(=O)c1ccccc1Cl", "note": "[Compound 4i]", "values": [
      {"measurement": "DPPH free radical scavenging activity", "setting": "[1]", "result": "good activity"},
      {"measurement": "Ki", "setting": "[3]", "result": 0.3, "unit": "nM"},
      {"measurement": "Inhibition Type", "setting": "[3]; Lineweaver–Burk plot", "result": "Non-Competitive"},
      {"measurement": "Vmax", "setting": "[3]; concentration of 4i 0.001 (µM per Figure 3)", "result": "0.000387 ΔA/Min"},
      {"measurement": "Vmax", "setting": "[3]; concentration of 4i 0.002 (µM per Figure 3)", "result": "0.000131 ΔA/Min"},
      {"measurement": "Vmax", "setting": "[3]; concentration of 4i 0.004 (µM per Figure 3)", "result": "8.495 × 10^−5 ΔA/Min"},
      {"measurement": "IC50", "setting": "[2]", "result": "1.9 ± 1.1", "unit": "nM"}
    ]},
    {"smiles": "NC(N)=S", "note": "[Thiourea]", "values": [
      {"measurement": "IC50", "setting": "[2]; jack bean urease, mean ± SEM, read-out: Urease Activity IC50 ± SEM", "result": "4750 ± 54.5", "unit": "nM"}
    ]},
    {"smiles": "Cc1c(Cl)cccc1NC(=S)NC(=O)c1ccccc1", "note": "[Compound 4a, N-[[3-chloro-2-methylphenyl]carbamothioyl]benzamide]", "values": [
      {"measurement": "IC50", "setting": "[2]", "result": "44.9 ± 85.4", "unit": "nM"}
    ]},
    {"smiles": "Cc1c(Cl)cccc1NC(=S)NC(=O)c1ccc([N+](=O)[O-])cc1", "note": "[Compound 4e]", "values": [
      {"measurement": "DPPH free radical scavenging activity", "setting": "[1]", "result": "good activity"}
    ]},
    {"smiles": "Cc1c(Cl)cccc1NC(=S)NC(=O)c1ccc(Cl)cc1", "note": "[Compound 4h]", "values": [
      {"measurement": "DPPH free radical scavenging activity", "setting": "[1]", "result": "good activity"},
      {"measurement": "IC50", "setting": "[2]", "result": 22.9, "unit": "nM"}
    ]},
    {"smiles": "Cc1c(Cl)cccc1NC(=S)NC(=O)c1cc([N+](=O)[O-])cc([N+](=O)[O-])c1", "note": "[Compound 4g]", "values": [
      {"measurement": "DPPH free radical scavenging activity", "setting": "[1]", "result": "good activity"},
      {"measurement": "IC50", "setting": "[2]", "result": "33.5 ± 99.4", "unit": "nM"}
    ]}
  ]
}
